Series [1] concerns intracellular P. gingivalis. Nature of the series: Intracellular killing of P. gingivalis in H357 keratinocytes (invasion assay, colony count). It is filed as cell-based. The following applies: H357 cells infected at MOI 100; metronidazole 0.01-10 μg/ml with 2 mg/ml vesicles; FIG. 7. The procedure: The polymer was prepared as in Example 9a. The film was dissolved by adding 2 ml of sterilized PBS (pH2) until the solution was clear. The concentration of polymer was 10 mg/ml. This was then sterilized using a 0.2 μm filter. The pH of the solution was adjusted to 7.4 with sterilized 1M NaOH and the vesicles purified by gel filtration chromatography using sterilized sepharose agar 4B (Sigma, Poole, Dorset, UK). […] After that, 200 μl of the medium was collected for H357 viability test using the LDH assay. Moreover, keratinocytes in a different plate treated in an identical manner was tested for H357 viability using propidium iodide and Hoechst. […] Serial dilutions of the lysate were used to determine colony count. […] This was then sonicated for 30 minutes to improve encapsulation. The mixture was not separated by size-exchange chromatography, so the free metronidazole was in equilibrium with the encapsulated metronidazole. P. gingivalis (ATCC 33277) at MOI 100 was used to infect H357 cells for 90 min. […] Saponin was then used to release intracellular bacteria from H357 cells and the number of intracellular P. gingivalis measured by counting the colonies from serial dilutions.

A further series concerns H357. The settings on record: LDH assay; all concentrations; FIG. 8.
The conditions of series [2]: cited from earlier work.

With gentamycin, the “recovered intracellular P. gingivalis (killing of intracellular bacteria)” value in series [1] is recorded as “not able to kill the intracellular P. gingivalis”. Besides, in the series with H357, the “viability of H357” value was “not significantly different”.
Regarding `Cc1ncc([N+](=O)[O-])n1CCO` [metronidazole, Metronidazole], in series [2], the “log P” value was “negative”.
